From patent US10681909B2, “Herbicidal triazoles” (FMC Corporation, priority 2014, dated 2020)

Assays:
ragweed = assay: Test C preemergence; assay type: in vivo, Ambrosia elatior; conditions: for Ragweed plant response rating (0 to 100): Preemergence, visual rating after 13 to 15 d; for Plant response rating (scale of 0 to 100 where 0 is no effect and 100 is complete control): Ragweed, preemergence
In short: (§1)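 Plants are treated postemergence at the 1- to 4-leaf stage (2 to 18 cm), grown in sphagnum peat/vermiculite medium; preemergence treatment is applied to seed planted in loam soil with sand. Both use test chemical in a non-phytotoxic solvent mixture with surfactant.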

deadnettle = assay: Test D preemergence; assay type: in vivo, Lamium amplexicaule; conditions: for Plant response rating (0 to 100), Deadnettle: 16 g ai/ha, 0 is no effect, 100 is complete control; for Plant response rating: Deadnettle: scale 0 to 100
In short: (§2)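 Pre: sown in silt loam, treated at planting. Post: grown in peat/vermiculite medium, treated at 1- to 4-leaf stage (2–18 cm). Compounds in non-phytotoxic solvent plus surfactant. Kept 14–21 d in controlled environment, then scored visually vs controls. Dash = no test result.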

barley, winter = assay: Test D preemergence; assay type: in vivo, Hordeum vulgare; conditions: for Plant response rating (0 to 100), Barley, Winter: 16 g ai/ha, 0 is no effect, 100 is complete control; for Plant response rating: Barley, Winter: scale 0 to 100
In short: as §2

barley, spring = assay: Test D preemergence; assay type: in vivo, Hordeum vulgare; conditions: for Plant response rating (0 to 100), Barley, Spring: 16 g ai/ha, 0 is no effect, 100 is complete control; for Plant response rating: Barley, Spring: scale 0 to 100
In short: as §2

Russian thistle = assay: Test D preemergence; assay type: in vivo, Salsola kali; conditions: for Plant response rating (0 to 100), Russian Thistle: 16 g ai/ha, 0 is no effect, 100 is complete control; for Plant response rating: Russian Thistle: scale 0 to 100
Text: Seeds of plant species selected from bluegrass (annual bluegrass, Poa annua), blackgrass (Alopecurus myosuroides), canarygrass (Phalaris minor), chickweed (common chickweed, Stellaria media), galium (catchweed bedstraw, Galium aparine), bromegrass, down (downy bromegrass, Bromus tectorum), Russian thistle (Salsola kali), field poppy (Papaver rhoeas), field violet (Viola arvensis), foxtail, green (green foxtail, Setaria viridis), deadnettle (henbit deadnettle, Lamium amplexicaule), ryegrass, Ital. (Italian ryegrass, Lolium multiflorum), kochia (Kochia scoparia), lambsquarters (Chenopodium album), oilseed rape (Brassica napus), pigweed (Amaranthus retroflexus), chamomile (scentless chamomile, Matricaria inodora), speedwell (bird's-eye speedwell, Veronica persica), barley, spring (spring barley, Hordeum vulgare), wheat, spring (spring wheat, Triticum aestivum), buckwheat, wild (wild buckwheat, Polygonum convolvulus), wild mustard (Sinapis arvensis), oat, wild (wild oat, Avena fatua), radish, wild (wild radish, Raphanus raphanistrum), […]), barley, winter (winter barley, Hordeum vulgare), and wheat, winter (winter wheat, Triticum aestivum) were planted into a silt loam soil and treated preemergence with test chemicals formulated in a non-phytotoxic solvent mixture which included a surfactant. At the same time, these species were planted in pots containing Sunshine Redi-Earth® planting medium comprising spaghnum peat moss, vermiculite, starter nutrients and dolomitic limestone and treated with postemergence applications of the test chemicals formulated in the same manner. Plants ranged in height from 2 to 18 cm (1- to 4-leaf stage). Treated plants and controls were maintained in a controlled growth environment for 14 to 21 d after which time all species were compared to controls and visually evaluated. […] A dash (-) response means no test result.

blackgrass = assay: Test D postemergence; assay type: in vivo, Alopecurus myosuroides; conditions: scale 0 to 100
In short: as §2

chickweed [1] = assay: Test D postemergence; assay type: in vivo, Stellaria media; conditions: scale 0 to 100
In short: as §2

ryegrass, Ital. = assay: Test D preemergence; assay type: in vivo, Lolium multiflorum; conditions: for Plant response rating (0 to 100), Ryegrass, Ital.: 16 g ai/ha, 0 is no effect, 100 is complete control; for Plant response rating: Ryegrass, Ital.: scale 0 to 100
In short: as §2

lambsquarters = assay: Test D postemergence; assay type: in vivo, Chenopodium album; conditions: scale 0 to 100
In short: as §2

oat, wild = assay: Test D postemergence; assay type: in vivo, Avena fatua; conditions: scale 0 to 100
In short: as §2

ryegrass, Italian = assay: Test C preemergence; assay type: in vivo, Lolium multiflorum; conditions: for Ryegrass, Italian plant response rating (0 to 100): Preemergence, visual rating after 13 to 15 d; for Plant response rating (scale of 0 to 100 where 0 is no effect and 100 is complete control): Ryegrass, Italian, preemergence
In short: as §1

velvetleaf = assay: Test C preemergence; assay type: in vivo, Abutilon theophrasti; conditions: for Velvetleaf plant response rating (0 to 100): Preemergence, visual rating after 13 to 15 d; for Plant response rating (scale of 0 to 100 where 0 is no effect and 100 is complete control): Velvetleaf, preemergence, 250 g ai/ha
In short: as §1

chickweed [2] = assay: Test D preemergence; assay type: in vivo, Stellaria media; conditions: for Plant response rating (0 to 100), Chickweed: 16 g ai/ha, 0 is no effect, 100 is complete control; for Plant response rating: Chickweed: scale 0 to 100
In short: as §2

## FC(F)(F)COc1nc(-c2ccc(Cl)cc2)nn1Cc1ccnc(C(F)(F)F)c1 [Compound 31]
ragweed; 31 g ai/ha
  Ragweed plant response rating (0 to 100): 45
ragweed; 62 g ai/ha
  Ragweed plant response rating (0 to 100): 50
ragweed; 125 g ai/ha
  Plant response rating (scale of 0 to 100 where 0 is no effect and 100 is complete control): 65
ragweed; 250 g ai/ha
  Plant response rating (scale of 0 to 100 where 0 is no effect and 100 is complete control): 75
deadnettle
  Plant response rating (0 to 100), Deadnettle: 80
deadnettle; 31 g ai/ha
  Plant response rating: Deadnettle: 80
deadnettle; 62 g ai/ha
  Plant response rating: Deadnettle: 90
deadnettle; 125 g ai/ha
  Plant response rating: Deadnettle: 100
barley, winter
  Plant response rating (0 to 100), Barley, Winter: 25
barley, winter; 31 g ai/ha
  Plant response rating: Barley, Winter: 35
barley, winter; 62 g ai/ha
  Plant response rating: Barley, Winter: 40
barley, winter; 125 g ai/ha
  Plant response rating: Barley, Winter: 50
barley, spring
  Plant response rating (0 to 100), Barley, Spring: 35
barley, spring; 31 g ai/ha
  Plant response rating: Barley, Spring: 45
barley, spring; 62 g ai/ha
  Plant response rating: Barley, Spring: 45
barley, spring; 125 g ai/ha
  Plant response rating: Barley, Spring: 50
Russian thistle
  Plant response rating (0 to 100), Russian Thistle: 70
Russian thistle; 62 g ai/ha
  Plant response rating: Russian Thistle: 85
Russian thistle; 125 g ai/ha
  Plant response rating: Russian Thistle: 90
blackgrass; 16 g ai/ha
  Plant response rating: Blackgrass: 45
blackgrass; 31 g ai/ha
  Plant response rating: Blackgrass: 65
blackgrass; 62 g ai/ha
  Plant response rating: Blackgrass: 70
blackgrass; 125 g ai/ha
  Plant response rating: Blackgrass: 80
Chickweed [1]; 16 g ai/ha
  Plant response rating: Chickweed: 80
Chickweed [1]; 31 g ai/ha
  Plant response rating: Chickweed: 90
Chickweed [1]; 62 g ai/ha
  Plant response rating: Chickweed: 100
Chickweed [1]; 125 g ai/ha
  Plant response rating: Chickweed: 100
ryegrass, Ital.
  Plant response rating (0 to 100), Ryegrass, Ital.: 40
ryegrass, Ital.; 62 g ai/ha
  Plant response rating: Ryegrass, Ital.: 50
ryegrass, Ital.; 125 g ai/ha
  Plant response rating: Ryegrass, Ital.: 100
lambsquarters; 16 g ai/ha
  Plant response rating: Lambsquarters: 75
lambsquarters; 31 g ai/ha
  Plant response rating: Lambsquarters: 95
lambsquarters; 62 g ai/ha
  Plant response rating: Lambsquarters: 85
lambsquarters; 125 g ai/ha
  Plant response rating: Lambsquarters: 90
oat, wild; 16 g ai/ha
  Plant response rating: Oat, Wild: 35
oat, wild; 31 g ai/ha
  Plant response rating: Oat, Wild: 45
oat, wild; 62 g ai/ha
  Plant response rating: Oat, Wild: 70
oat, wild; 125 g ai/ha
  Plant response rating: Oat, Wild: 75
ryegrass, Italian; 31 g ai/ha
  Ryegrass, Italian plant response rating (0 to 100): 50
ryegrass, Italian; 62 g ai/ha
  Ryegrass, Italian plant response rating (0 to 100): 60
ryegrass, Italian; 125 g ai/ha
  Plant response rating (scale of 0 to 100 where 0 is no effect and 100 is complete control): 90
ryegrass, Italian; 250 g ai/ha
  Plant response rating (scale of 0 to 100 where 0 is no effect and 100 is complete control): 90
velvetleaf; 31 g ai/ha
  Velvetleaf plant response rating (0 to 100): 35
velvetleaf; 62 g ai/ha
  Velvetleaf plant response rating (0 to 100): 55
velvetleaf
  Plant response rating (scale of 0 to 100 where 0 is no effect and 100 is complete control): 80
Chickweed [2]
  Plant response rating (0 to 100), Chickweed: 80
Chickweed [2]; 31 g ai/ha
  Plant response rating: Chickweed: 90
Chickweed [2]; 62 g ai/ha
  Plant response rating: Chickweed: 100
Chickweed [2]; 125 g ai/ha
  Plant response rating: Chickweed: 100

## CCOc1nc(-c2ccc(C(F)(F)F)cc2)nn1Cc1ccnc(C(F)(F)F)c1 [Compound 35, 4-[[5-ethoxy-3-[4-(trifluoromethyl)phenyl]-1H-1,2,4-triazole-1-yl]methyl]-2-(trifluoromethyl)pyridine]
ragweed; 31 g ai/ha
  Ragweed plant response rating (0 to 100): 60
ragweed; 62 g ai/ha
  Ragweed plant response rating (0 to 100): 75
ragweed; 125 g ai/ha
  Plant response rating (scale of 0 to 100 where 0 is no effect and 100 is complete control): 85
ragweed; 250 g ai/ha
  Plant response rating (scale of 0 to 100 where 0 is no effect and 100 is complete control): 90
deadnettle
  Plant response rating (0 to 100), Deadnettle: 80
deadnettle; 31 g ai/ha
  Plant response rating: Deadnettle: 85
deadnettle; 62 g ai/ha
  Plant response rating: Deadnettle: 100
deadnettle; 125 g ai/ha
  Plant response rating: Deadnettle: 100
barley, winter
  Plant response rating (0 to 100), Barley, Winter: 25
barley, winter; 31 g ai/ha
  Plant response rating: Barley, Winter: 40
barley, winter; 62 g ai/ha
  Plant response rating: Barley, Winter: 40
barley, winter; 125 g ai/ha
  Plant response rating: Barley, Winter: 50
barley, spring
  Plant response rating (0 to 100), Barley, Spring: 30
barley, spring; 31 g ai/ha
  Plant response rating: Barley, Spring: 40
barley, spring; 62 g ai/ha
  Plant response rating: Barley, Spring: 40
barley, spring; 125 g ai/ha
  Plant response rating: Barley, Spring: 50
Russian thistle
  Plant response rating (0 to 100), Russian Thistle: 70
Russian thistle; 62 g ai/ha
  Plant response rating: Russian Thistle: 80
Russian thistle; 125 g ai/ha
  Plant response rating: Russian Thistle: 85
blackgrass; 16 g ai/ha
  Plant response rating: Blackgrass: 35
blackgrass; 31 g ai/ha
  Plant response rating: Blackgrass: 55
blackgrass; 62 g ai/ha
  Plant response rating: Blackgrass: 70
blackgrass; 125 g ai/ha
  Plant response rating: Blackgrass: 80
Chickweed [1]; 16 g ai/ha
  Plant response rating: Chickweed: 70
Chickweed [1]; 31 g ai/ha
  Plant response rating: Chickweed: 85
Chickweed [1]; 62 g ai/ha
  Plant response rating: Chickweed: 100
Chickweed [1]; 125 g ai/ha
  Plant response rating: Chickweed: 100
ryegrass, Ital.
  Plant response rating (0 to 100), Ryegrass, Ital.: 35
ryegrass, Ital.; 62 g ai/ha
  Plant response rating: Ryegrass, Ital.: 65
ryegrass, Ital.; 125 g ai/ha
  Plant response rating: Ryegrass, Ital.: 70
lambsquarters; 16 g ai/ha
  Plant response rating: Lambsquarters: 85
lambsquarters; 31 g ai/ha
  Plant response rating: Lambsquarters: 95
lambsquarters; 62 g ai/ha
  Plant response rating: Lambsquarters: 95
lambsquarters; 125 g ai/ha
  Plant response rating: Lambsquarters: 100
oat, wild; 16 g ai/ha
  Plant response rating: Oat, Wild: 40
oat, wild; 31 g ai/ha
  Plant response rating: Oat, Wild: 65
oat, wild; 62 g ai/ha
  Plant response rating: Oat, Wild: 75
oat, wild; 125 g ai/ha
  Plant response rating: Oat, Wild: 80
ryegrass, Italian; 31 g ai/ha
  Ryegrass, Italian plant response rating (0 to 100): 70
ryegrass, Italian; 62 g ai/ha
  Ryegrass, Italian plant response rating (0 to 100): 85
ryegrass, Italian; 125 g ai/ha
  Plant response rating (scale of 0 to 100 where 0 is no effect and 100 is complete control): 90
ryegrass, Italian; 250 g ai/ha
  Plant response rating (scale of 0 to 100 where 0 is no effect and 100 is complete control): 90
velvetleaf; 31 g ai/ha
  Velvetleaf plant response rating (0 to 100): 70
velvetleaf; 62 g ai/ha
  Velvetleaf plant response rating (0 to 100): 65
velvetleaf
  Plant response rating (scale of 0 to 100 where 0 is no effect and 100 is complete control): 90
Chickweed [2]
  Plant response rating (0 to 100), Chickweed: 70
Chickweed [2]; 31 g ai/ha
  Plant response rating: Chickweed: 85
Chickweed [2]; 62 g ai/ha
  Plant response rating: Chickweed: 100
Chickweed [2]; 125 g ai/ha
  Plant response rating: Chickweed: 100
